In patent US20200289434A1, “RAPIDLY IMPROVING ENDOTHELIAL FUNCTION, REDUCING ARTERIAL STIFFNESS AND REVERSING CALCIFICATION OF BLOOD VESSELS BY ADMINISTERING VITAMIN K” (KAYDENCE PHARMA AS, priority 2019, published 2020):

Legend:
[1] = tested on: macrophages in BCA atherosclerotic plaque; experiment: Example 3 second part: immunohistochemical detection of macrophages (Mac-3) in atherosclerotic plaque in BCA; type: in vivo, mice; settings: high dose (10 mg/kg b.w./day)
Procedure: For detection of macrophages in BCA, atherosclerotic plaque immunohistochemical staining was performed. After heat-induce epitope retrieval, with 10 mM sodium citrate buffer (pH 6), deparaffinised sections were blocked with 5% normal goat serum and 1% hydrogen peroxide. […] Next, sections were treated with biotinylated secondary antibody, followed by horseradish peroxidase-conjugated streptavidin. 3,3′-diaminobenzidine (DAB) as a chromogen was used for visualization of antibody-antigen interaction. Sections were counterstained with hematoxylin. Intensity of Mac-3 staining was estimated manually considering quantity and intensity of positive reactions. Final results are shown as a mean from two independent analysis.

ApoE/LDLR−/− mice [2] = experiment: Example 3 second part: nitrite and nitrate concentration in plasma; type: in vivo; settings: eight weeks
[3] = mouse, in vivo
ApoE/LDLR−/− mice [4] = experiment: Example 2: nitrite and nitrate concentration in plasma (ENO-20); type: in vivo; settings: two months
Procedure: Nitrite (NO2−) and nitrate (NO3−) concentration in plasma—HPLC-based ENO-20
Blood samples were collected from heart into test tubes containing additional anticoagulant and centrifuged at 1000 g for 10 min at 4° C. The samples were used for HPLC measurement of nitrate (NO3^−) and nitrite (NO2^−) concentrations in plasma by an ENO-20 NOx Analyzer.

matrix gla protein (MGP) = experiment: Clinical study: blood analysis of matrix gla protein carboxylation; type: in vivo, human; settings: kidney transplant patients, 360 ug/day, 8 weeks
Procedure: Participants were enrolled in a clinical trial in which the effects of vitamin K2 were determined for patients who had recently undergone a kidney transplant. At the beginning of the study, patients were subjected to a non-invasive pulse wave velocity measurement to measure arterial stiffness/flexibility, as well as blood analysis. The study participants were then instructed to receive a specific daily dose of MenaQ7 vitamin K2 menaquinone-7 (360 ug/day) for a total of 8 weeks. At the end of 8 weeks, patients were again examined with a follow-up examination, a non-invasive pulse wave velocity measurement and blood analysis and drug treatment was discontinued.
As part of the blood analysis, carboxylated matrix gla protein (MGP) was measured as a direct measure of vitamin K2 activity. The carboxylated MGP inhibits calcification of blood vessels and Vitamin K2 stimulates carboxylation of MGP.

ApoE/LDLR−/− mice [5] = experiment: Example 3 second part: histological assessment of area and composition of atherosclerotic plaque in BCA; type: in vivo; settings: eight weeks
Source text: For the determination of atherosclerotic plaque area and composition isolated brachiocephalic artery (BCA) was dissected, fixed in 4% buffered formalin, and embedded in paraffin. 5 μm-thick serial sections of BCA were collected from the proximal to distal part of the artery. Staining with Unna's orcein combined with Martius, Scarlet and Blue trichrome (OMSB) was applied on every tenth section (50 μm interval between each section) for quantitative analysis of atherosclerotic plaques. The areas of particular components of atherosclerotic plaque as well as artery lumen and wall were determined after Columbus-based software processing (FIG. 9) using specially-designed algorithm as described in Gajda M, Jasztal A, Banasik T, Jasek-Gajda E, Chlopicki S. Combined orcein and martius scarlet blue (OMSB) staining for qualitative and quantitative analyses of atherosclerotic plaques in brachiocephalic arteries in apoE/LDLR−/− mice. Histochem Cell Biol 2017. doi:10.1007/s00418-017-1538-8. The parameters analyzed include vessel wall area (VWA), internal vessel area (IVA=plaque area+lumen area), plaque area (expressed as percent of internal wall area: plaque/IWA), and lumen area (expressed as percent of internal wall area: lumen/IWA).

SMILES: CC(C)=CCC/C(C)=C/CC/C(C)=C/CC/C(C)=C/CC/C(C)=C/CC/C(C)=C/CC/C(C)=C/CC1=C(C)C(=O)c2ccccc2C1=O [MK-7, menaquinone-7]
- intensity of MAC-3 staining [1]: 139±29
- concentration of NO3− in plasma (ApoE/LDLR−/− mice [2]; 0.03 or 10 mg/kg b.w./day): did not change significantly
- increase in NO2− concentration in plasma (ApoE/LDLR−/− mice [2]; high dose 10 mg/kg b.w./day): ~42%
- increase in NO2− concentration in plasma (ApoE/LDLR−/− mice [2]; low dose 0.03 mg/kg b.w./day): about 58%
- vitamin K1 and K1 2,3-epoxide plasma concentration [3]: tent to decrease
- concentration of MK4 2,3-epoxide in plasma ([3]; 5 mg/kg/day): maintained at similar level
- plasma concentration of K2 (MK-7) ([3]; 5 mg/kg/day): dose-dependent increase
- plasma concentration of MK-4 ([3]; 5 mg/kg/day): dose-dependent increase
- concentration of NO3− in plasma (ApoE/LDLR−/− mice [4]; 0.03 or 10 mg/kg b.w./day): did not change significantly
- increase in NO2− concentration in plasma (ApoE/LDLR−/− mice [4]; high dose 10 mg/kg b.w./day): ~42%
- increase in NO2− concentration in plasma (ApoE/LDLR−/− mice [4]; low dose 0.03 mg/kg b.w./day): about 58%
- mean reduction of levels of uncarboxylated MGP (matrix gla protein (MGP)): 55%
- plaque and lumen area expressed as percent of IWA (ApoE/LDLR−/− mice [5]; either low or high dose): did not change
- plaque size vs non-treated mice (ApoE/LDLR−/− mice [5]; low (0.03) or high (10 mg/kg b.w./day) dose): not different
- decrease in vessel wall area (VWA) (ApoE/LDLR−/− mice [5]; low and high dose, 24-week-old mice): about 5%
- internal wall area (IWA) (ApoE/LDLR−/− mice [5]; lower dose, not visible for entire vessel): decreased only in the middle part of the vessel
